From patent US12428415B2, “Matriptase 2 inhibitors and uses thereof” (Disc Medicine, Inc., priority 2018, dated 2025) come the findings set out here.

SMILES strings stand for the structures.

One test has as its target T1, Human Recombinant Matriptase 2 (Homo sapiens, UniProt Q8IU80).
T1 construct: purchased Enzo Life Sciences (an in-house preparation was also used) ALX-201-752-1
T1 sequence (Q8IU80 1-811): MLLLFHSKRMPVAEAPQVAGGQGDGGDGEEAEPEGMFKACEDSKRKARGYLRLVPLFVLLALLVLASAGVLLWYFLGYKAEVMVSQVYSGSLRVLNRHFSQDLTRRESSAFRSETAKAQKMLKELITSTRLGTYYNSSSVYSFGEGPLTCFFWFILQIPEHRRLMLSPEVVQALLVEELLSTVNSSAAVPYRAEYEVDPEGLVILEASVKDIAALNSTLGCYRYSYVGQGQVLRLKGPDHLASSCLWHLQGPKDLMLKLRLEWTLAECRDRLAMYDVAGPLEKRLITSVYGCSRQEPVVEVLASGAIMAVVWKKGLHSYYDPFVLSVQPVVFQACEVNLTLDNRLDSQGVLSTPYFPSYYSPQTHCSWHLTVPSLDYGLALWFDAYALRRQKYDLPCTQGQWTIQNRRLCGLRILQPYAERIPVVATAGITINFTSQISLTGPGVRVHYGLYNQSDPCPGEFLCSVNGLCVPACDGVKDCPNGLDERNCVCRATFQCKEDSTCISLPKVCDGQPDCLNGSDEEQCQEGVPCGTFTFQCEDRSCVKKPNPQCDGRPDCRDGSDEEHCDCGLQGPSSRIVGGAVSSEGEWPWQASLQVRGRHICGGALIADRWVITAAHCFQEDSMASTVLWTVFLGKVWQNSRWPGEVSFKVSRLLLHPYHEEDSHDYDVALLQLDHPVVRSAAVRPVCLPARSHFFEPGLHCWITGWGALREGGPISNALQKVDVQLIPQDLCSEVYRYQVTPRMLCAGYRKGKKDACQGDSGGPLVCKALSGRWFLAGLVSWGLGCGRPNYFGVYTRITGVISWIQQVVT
The test can be described thus: Matriptase 2 fluorescence based inhibition assay, Method A (100 mM TRIS pH 9, 1 mg/mL BSA). The format is biochemical. Conditions: 1 uM compound; Assay Used = A; read-out: Mar-2 % inhibition at 1 uM. Summed up:
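At 25° C in 100 mM TRIS pH 9 with 1 mg/mL BSA and 1% DMSO, compounds were preincubated 30 min with 7 nM commercial or 15 nM in-house protein before adding 100 μM Boc-Gln-Ala-Arg-7-amido-4-methyl coumarin. Fluorescence at 360/480 nm after 60 min; single points at 1 and 10 μM, IC50 by variable-slope nonlinear regression.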
Turning to `N=C(N)c1ccc2cc(C(=O)N[C@H]3CC[C@H](N)CC3)n(S(=O)(=O)c3ccc4ccccc4c3)c2c1` [Compound I-397], the inhibition at 1 µM was 25 to 50%.

Take `N/C(=N\O)c1ccc2cc(C(=O)N[C@H]3CC[C@H](N)CC3)n(Cc3ccc4ccccc4c3)c2c1` [Compound I-399]: the inhibition at 1 µM lay within 0 to 25%.

Staying with this test, now noted: 1 uM; Assay Used A; read-out: Mar-2 % inhibition at 1 uM.
For `N=C(N)c1ccc2cc(C(=O)Nc3cccc(N4CCCCC4)c3)n(Cc3ccc(C(N)=O)cc3)c2c1` [Compound I-110], the inhibition at 1 µM is 0 to 25%.

`N=C(N)c1ccc2cc(C(=O)N[C@H]3CC[C@H](N)CC3)n(Cc3cccnc3)c2c1` [Compound I-18]: the inhibition at 1 µM lay within 25 to 50%.

For the compound `COc1ccc(NC(=O)c2cc3ccc(C(=N)N)cc3n2Cc2ccc(C(N)=O)cc2)cc1OC` [Compound I-69], the inhibition at 1 µM fell in the range of 0 to 25%.

In the case of `CC(C)OC(=O)NC(=N)c1ccc2cc(C(=O)Nc3cccc(N4CCCC4)c3)n(Cc3ccc(C(N)=O)cc3)c2c1` [Compound I-142], the inhibition at 1 µM is 25 to 50%.

On to `CC(C)N1CC[C@H](NC(=O)c2cc3ccc(C(=N)N)cc3n2Cc2ccc(C(N)=O)cc2)C1` [Compound I-196], for which the inhibition at 1 µM was 0 to 25%.

Regarding `N=C(N)c1ccc2cc(C(=O)Nc3ccc(C(F)(F)F)cc3)n(Cc3ccc(C(N)=O)cc3)c2c1` [Compound I-61], the inhibition at 1 µM fell in the range of 0 to 25%.

As to `C[C@H](NC(=O)c1cc2ccc(C(=N)N)cc2n1Cc1ccc(C(N)=O)cc1)c1cccc(F)c1` [Compound I-95], the inhibition at 1 µM fell in the range of 0 to 25%.

`N=C(N)c1ccc2cc(C(=O)Nc3cccc(N4CCCC4=O)c3)n(Cc3ccc(C(N)=O)cc3)c2c1` [Compound I-156]: the inhibition at 1 µM was in the range of 0 to 25%.

Take `N=C(N)c1ccc2cc(C(=O)Nc3cccc4c3CCC4)n(Cc3ccc(C(N)=O)cc3)c2c1` [Compound I-91]: the inhibition at 1 µM is 0 to 25%.

With `N=C(N)c1ccc2cc(C(=O)Nc3ccc(Oc4ccccc4)cc3)n(Cc3ccc(C(N)=O)cc3)c2c1` [Compound I-65], the inhibition at 1 µM is 0 to 25%.

On to `C[C@H](NC(=O)OC(C)(C)C)C(=O)O/N=C(\N)c1ccc2cc(C(=O)Nc3cccc(N4CCCC4)c3)n(Cc3ccc(C(N)=O)cc3)c2c1` [Compound I-158, (S)-tert-butyl (1-(((amino(1-(4-carbamoylbenzyl)-2-((3-(pyrrolidin-1-yl)phenyl)carbamoyl)-1H-indol-6-yl)methylene)amino)oxy)-1-oxopropan-2-yl)carbamate], for which the inhibition at 1 µM was 0 to 25%.

Take `N=C(N)c1ccc2cc(C(=O)Nc3cccc(N4CC[C@H](O)C4)c3)n(Cc3ccc(C(N)=O)cc3)c2c1` [Compound I-128]: the inhibition at 1 µM was in the range of 0 to 25%.

For the compound `N=C(N)c1ccc2cc(C(=O)N[C@@H](CO)c3ccccc3)n(Cc3ccc(C(N)=O)cc3)c2c1` [Compound I-85], the inhibition at 1 µM lay within 0 to 25%.

For the compound `CC(C)c1ccc(Cn2c(C(=O)NCC3CCCCC3)cc3ccc(C(=N)N)cc32)cc1` [Compound I-16], the inhibition at 1 µM lay within 0 to 25%.

On to `N=C(N)c1ccc2cc(C(=O)Nc3cccc(N4CCCC4)n3)n(Cc3ccc(C(N)=O)cc3)c2c1` [Compound I-180], for which the inhibition at 1 µM was 25 to 50%.

Consider `N=C(N)c1ccc2cc(C(=O)Nc3cccnc3)n(Cc3ccc(C(N)=O)cc3)c2c1` [Compound I-170], for which the inhibition at 1 µM lay within 0 to 25%.

As to `N=C(N)c1ccc2cc(C(=O)Nc3ccc(N4CCCC4)cc3)n(Cc3ccc(C(N)=O)cc3)c2c1` [Compound I-90], the inhibition at 1 µM was in the range of 0 to 25%.

On to `N=C(N)c1ccc2cc(C(=O)N[C@@H]3CC=CCC3)n(Cc3ccc(C(N)=O)cc3)c2c1` [Compound I-189], for which the inhibition at 1 µM fell in the range of 0 to 25%.

Take `Cc1ccnc(NC(=O)c2cc3ccc(C(=N)N)cc3n2Cc2ccc(C(N)=O)cc2)c1` [Compound I-176]: the inhibition at 1 µM lay within 0 to 25%.

For the compound `C[C@H](NC(=O)c1cc2ccc(C(=N)N)cc2n1Cc1ccc(C(N)=O)cc1)c1ccc(Cl)c(Cl)c1` [Compound I-107], the inhibition at 1 µM lay in the range of 0 to 25%.

Turning to `N=C(N)c1ccc2cc(C(=O)Nc3ccnc(N4CCCC4)c3)n(Cc3ccc(C(N)=O)cc3)c2c1` [Compound I-178], the inhibition at 1 µM is 0 to 25%.

Turning to `N=C(N)c1ccc2cc(C(=O)Nc3ccc(N4CCCC4)c(F)c3)n(Cc3ccc(C(N)=O)cc3)c2c1` [Compound I-104], the inhibition at 1 µM is 0 to 25%.

Staying with this test, now noted: at 1 uM; Assay Used = A; read-out: Mar-2 % inhibition at 1 uM.
In the case of `N=C(N)c1ccc2cc(C(=O)N3CCC(CCN)CC3)n(CCc3ccccc3)c2c1` [Compound I-299], the inhibition at 1 µM fell in the range of 25 to 50%.

Take `N=C(N)c1ccc2cc(C(=O)N3CCCC(F)(F)C3)n(Cc3ccc(-c4ccccc4)cc3)c2c1` [Compound I-307]: the inhibition at 1 µM lay in the range of 0 to 25%.

`N=C(N)c1ccc2cc(C(=O)N[C@H]3CC[C@H](N)CC3)n(Cc3cccc(NC(=O)CCN)c3)c2c1` [Compound I-257, N-((1r,4r)-4-aminocyclohexyl)-1-(3-(3-aminopropanamido)benzyl)-6-carbamimidoyl-1H-indole-2-carboxamide]: the inhibition at 1 µM lay within 50 to 75%.

Consider `N=C(N)c1ccc2cc(C(=O)N3CCC[C@H](CF)C3)n(Cc3ccc(C(N)=O)cc3)c2c1` [Compound I-332], for which the inhibition at 1 µM fell in the range of 0 to 25%.

For the compound `CC1CCC(NC(=O)c2cc3ccc(C(=N)N)cc3n2Cc2ccc(C(=O)NC3CC3)cc2)CC1` (stereo not shown) [Compound I-219, 6-Carbamimidoyl-1-(4-(cyclopropylcarbamoyl)benzyl)-N-(4-methylcyclohexyl)-1H-indole-2-carboxamide], the inhibition at 1 µM was 0 to 25%.

Turning to `N=C(N)c1ccc2cc(C(=O)NCC3CCCCC3)n(Cc3ccc(C(=O)NC4CC4)cc3)c2c1` [Compound I-217, 6-Carbamimidoyl-N-(cyclohexylmethyl)-1-(4-(cyclopropylcarbamoyl)benzyl)-1H-indole-2-carboxamide], the inhibition at 1 µM lay within 0 to 25%.

Consider `N=C(N)c1ccc2c(Cl)c(C(=O)NCC3CCCCC3)n(Cc3ccc(-c4ccccc4)cc3)c2c1` [Compound I-236], for which the inhibition at 1 µM was 0 to 25%.

Consider `N=C(N)c1ccc2cc(C(=O)N3CCc4ccccc4C3)n(Cc3cccc(NC(=O)CCN)c3)c2c1` [Compound I-365], for which the inhibition at 1 µM fell in the range of 0 to 25%.

With `N=C(N)c1ccc2cc(C(=O)N3CCC(CCNC(=O)c4ccccn4)CC3)n(Cc3ccc(C(F)(F)F)cc3)c2c1` [Compound I-286], the inhibition at 1 µM was 0 to 25%.

For the compound `NCCC(=O)Nc1ccc(Cn2c(C(=O)N3CCC(CCN)CC3)cc3ccc(/C(N)=N/O)cc32)cc1` [Compound I-383], the inhibition at 1 µM lay in the range of 0 to 25%.

As to `N=C(N)c1ccc2cc(C(=O)N3CCC(CCN)CC3)n(Cc3ccc(Oc4ccc(F)cc4)cc3)c2c1` [Compound I-316], the inhibition at 1 µM lay in the range of 0 to 25%.

On to `N=C(N)c1ccc2cc(C(=O)N[C@H]3CC[C@H](N)CC3)n(Cc3ccc(Oc4ccc(F)cc4)nc3)c2c1` [Compound I-246], for which the inhibition at 1 µM fell in the range of 50 to 75%.

In the case of `N=C(N)c1ccc2cc(C(=O)N3CCc4ccccc4C3)n(Cc3ccc(-c4ccccc4)cc3)c2c1` [Compound I-311], the inhibition at 1 µM lay within 0 to 25%.

As for `N=C(N)c1ccc2cc(C(=O)N3CC[C@H](F)C3)n(Cc3ccc(-c4ccccc4)cc3)c2c1` [Compound I-309], the inhibition at 1 µM was in the range of 0 to 25%.

Consider `N=C(N)c1ccc2c(N)c(C(=O)N3CCC(CCN)CC3)n(CCS(=O)(=O)c3ccccc3)c2c1` [Compound I-349, 3-Amino-2-(4-(2-aminoethyl)piperidine-1-carbonyl)-1-(2-(phenylsulfonyl)ethyl)-1H-indole-6-carboximidamide], for which the inhibition at 1 µM is 25 to 50%.

For the compound `CNC(=O)c1ccc(Cn2c(C(=O)N3CCC(F)CC3)cc3ccc(C(=N)N)cc32)cc1` [Compound I-388], the inhibition at 1 µM was in the range of 0 to 25%.

In general, inhibition refers to the relative decrease from the control value, in per cent.
